Experimental data reported in patent US20050009840A1 (SUGEN, INC., priority 2003, published 2005).
Structures can show the parent of a compound that is named as a salt.

Target: T1, Met kinase domain (GST fusion protein) (Homo sapiens, UniProt P08581)
T1 construct: Purified GST fusion protein containing the Met kinase domain
Assay: Met transphosphorylation assay (ELISA, poly(glu-tyr) substrate);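 further: Cell-free ELISA with plate-bound poly(Glu:Tyr 4:1) phosphorylated by GST-fused Met kinase domain plus ATP and Mn2+, phosphotyrosine detected by anti-phosphotyrosine antibody with HRP and ABTS read-out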
Type: biochemical
Settings: read-out: Met IC50

T1 sequence (P08581 1078-1345 limits assumed): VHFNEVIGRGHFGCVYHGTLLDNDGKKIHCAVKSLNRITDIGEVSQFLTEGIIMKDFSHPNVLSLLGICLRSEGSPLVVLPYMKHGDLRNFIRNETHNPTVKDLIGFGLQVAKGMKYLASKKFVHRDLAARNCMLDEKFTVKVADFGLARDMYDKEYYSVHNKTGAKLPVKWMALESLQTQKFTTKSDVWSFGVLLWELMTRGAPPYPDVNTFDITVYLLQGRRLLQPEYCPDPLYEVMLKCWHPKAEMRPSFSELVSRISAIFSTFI

`CC(=O)N1CCN(CCNC(=O)c2ccc(-c3cnc(N)c(OC(C)c4c(Cl)cccc4Cl)n3)cc2)CC1` (stereo not drawn) [II-175, N-[2-(4-Acetyl-piperazin-1-yl)-ethyl]-4-{5-amino-6-[1-(2,6-dichloro-phenyl)-ethoxy]-pyrazin-2-yl}-benzamide] and `CC(=O)N1CCN(CCNC(=O)c2cccc(-c3cnc(N)c(OC(C)c4c(Cl)cccc4Cl)n3)c2)CC1` (stereo not drawn) [II-176, N-[2-(4-Acetyl-piperazin-1-yl)-ethyl]-3-{5-amino-6-[1-(2,6-dichloro-phenyl)-ethoxy]-pyrazin-2-yl}-benzamide] are within 1.5-fold of each other in IC50: 0.28 µM for the first, 0.35 µM for the second.

`CC(Oc1nc(-c2cccc(C(=O)N3CCC[C@@H]3CN3CCCC3)c2)cnc1N)c1c(Cl)cccc1Cl` (stereo partly drawn) [II-177, (3-{5-Amino-6-[1-(2,6-dichloro-phenyl)-ethoxy]-pyrazin-2-yl}-phenyl)-((R)-2-pyrrolidin-1-ylmethyl-pyrrolidin-1-yl)-methanone] and `CC(Oc1nc(-c2cccc(C(=O)NCCCN3CCCC3)c2)cnc1N)c1c(Cl)cccc1Cl` (stereo not drawn) [II-178, 3-{5-Amino-6-[1-(2,6-dichloro-phenyl)-ethoxy]-pyrazin-2-yl}-N-(3-pyrrolidin-1-yl-propyl)-benzamide] are within 1.5-fold of each other in IC50: 0.33 µM for the first, 0.34 µM for the second.

Going from `CC(Oc1nc(-c2cccc(C(=O)N3CC[C@H](N)C3)c2)cnc1N)c1c(Cl)cccc1Cl` (stereo partly drawn) [II-179, (3-{5-Amino-6-[1-(2,6-dichloro-phenyl)-ethoxy]-pyrazin-2-yl}-phenyl)-((S)-3-amino-pyrroldin-1-yl)-methanone] to `CC(Oc1nc(-c2cccc(C(=O)N3CC[C@@H](N)C3)c2)cnc1N)c1c(Cl)cccc1Cl` (stereo partly drawn) [II-180, (3-{5-Amino-6-[1-(2,6-dichloro-phenyl)-ethoxy]-pyrazin-2-yl}-phenyl)-((R)-3-amino-pyrrolidin-1-yl)-methanone hydrochloride salt], the IC50 rises from 0.11 µM to 0.18 µM (1.6-fold).

`CC(Oc1nc(-c2cccc(C(=O)N3CCN(C)CC3)c2)cnc1N)c1c(Cl)cccc1Cl` (stereo not drawn) [II-181, (3-{5-Amino-6-[1-(2,6-dichloro-phenyl)-ethoxy]-pyrazin-2-yl}-phenyl)-(4-methyl-piperazin-1-yl)-methanone] and `CC(Oc1nc(-c2cc(C(=O)N3CCN(C)CC3)ccn2)cnc1N)c1c(Cl)ccc(F)c1Cl` (stereo not drawn) [II-203, (2-{5-Amino-6-[1-(2,6-dichloro-3-fluoro-phenyl)-ethoxy]-pyrazin-2-yl}-pyridin-4-yl)-(4-methyl-piperazin-1-yl)-methanone] are within 1.5-fold of each other in IC50: 0.25 µM for the first, 0.18 µM for the second.

`CC(Oc1nc(-c2ccc(NC(=O)NCCN3CCOCC3)cc2)cnc1N)c1c(F)ccc(F)c1Cl` (stereo not drawn) [II-182, 1-(4-{5-Amino-6-[1-(2-chloro-3,6-difluoro-phenyl)-ethoxy]-pyrazin-2-yl}-phenyl)-3-(2-morpholin-4-yl-ethyl)-urea] and `CC(Oc1nc(-c2ccc(NC(=O)NCCN3CCCC3)cc2)cnc1N)c1c(F)ccc(F)c1Cl` (stereo not drawn) [II-184, 1-(4-{5-Amino-6-[1-(2-chloro-3,6-difluoro-phenyl)-ethoxy]-pyrazin-2-yl}-phenyl)-3-(2-pyrrolidin-1-yl-ethyl)-urea] are the same in IC50: 0.18 µM for the first, 0.18 µM for the second.

Compared with `CC(Oc1nc(-c2ccc(NC(=O)N3CCC[C@@H]3CN3CCCC3)cc2)cnc1N)c1c(F)ccc(F)c1Cl` (stereo partly drawn) [II-183, (R)-2-Pyrrolidin-1-ylmethyl-pyrrolidin-1-carboxylic acid (4-{5-amino-6-[1-(2-chloro-3,6-difluoro-phenyl)-ethoxy]-pyrazin-2-yl}-phenyl)-amide], `CC(Oc1nc(-c2ccc(NC(=O)N3CCN(C)CC3)cc2)cnc1N)c1c(F)ccc(F)c1Cl` (stereo not drawn) [II-185, 4-Methyl-piperazin-1-carboxylic acid (4-{5-amino-6-[1-(2-chloro-3,6-difluoro-phenyl)-ethoxy]-pyrazin-2-yl}-phenyl)-amide] is 2.1-fold lower in IC50: 0.21 µM for the first, 0.1 µM for the second. The second is the more potent here.

`CC(Oc1nc(-c2ccc(NC(=O)NCCO)cc2)cnc1N)c1c(F)ccc(F)c1Cl` (stereo not drawn) [II-186, 1-(4-{5-Amino-6-[1-(2-chloro-3,6-difluoro-phenyl)-ethoxy]-pyrazin-2-yl}-phenyl)-3-(2-hydroxy-ethyl)-urea] and `CC(Oc1nc(-c2ccc(NC(=O)NCCO)cc2)cnc1N)c1c(Cl)ccc(F)c1Cl` (stereo not drawn) [II-190, 1-(4-{5-Amino-6-[1-(2,6-dichloro-3-fluoro-phenyl)-ethoxy]-pyrazin-2-yl}-phenyl)-3-(2-hydroxy-ethyl)-urea] are within 1.5-fold of each other in IC50: 0.21 µM for the first, 0.28 µM for the second.

First: CC(Oc1nc(-c2ccc(NC(=O)N3CC[C@H](N)C3)cc2)cnc1N)c1c(F)ccc(F)c1Cl (stereo partly drawn) [II-187, (S)-3-Amino-pyrrolidine-1-carboxylic acid (4-{5-amino-6-[1-(2-chloro-3,6-difluoro-phenyl)-ethoxy]-pyrazin-2-yl}-phenyl)-amide]
Second: CC(Oc1nc(-c2ccc(NC(=O)N3CC[C@H](N)C3)cc2)cnc1N)c1c(Cl)ccc(F)c1Cl (stereo partly drawn) [II-191, (S)-3-Amino-pyrrolidine-1-carboxylic acid (4-{5-amino-6-[1-(2,6-dichloro-3-fluoro-phenyl)-ethoxy]-pyrazin-2-yl}-phenyl)-amide]
The IC50 of the first is 37-fold lower: 0.082 µM for the first, 3 µM for the second.

`CC(Oc1nc(-c2ccc(NC(=O)NC3CCN(C)CC3)cc2)cnc1N)c1c(F)ccc(F)c1Cl` (stereo not drawn) [II-188, 1-(4-{5-Amino-6-[1-(2-chloro-3,6-difluoro-phenyl)-ethoxy]-pyrazin-2-yl}-phenyl)-3-(1-methyl-piperidin-4-yl)-urea] and `CC(Oc1nc(-c2ccc(NC(=O)NC3CCN(C)CC3)cc2)cnc1N)c1c(Cl)ccc(F)c1Cl` (stereo not drawn) [II-192, 1-(4-{5-Amino-6-[1-(2,6-dichloro-3-fluoro-phenyl)-ethoxy]-pyrazin-2-yl}-phenyl)-3-(1-methyl-piperidin-4-yl)-urea] are within 1.5-fold of each other in IC50: 0.054 µM for the first, 0.052 µM for the second.

`CC(Oc1nc(-c2ccc(NC(=O)N3CCN(C)CC3)cc2)cnc1N)c1c(Cl)ccc(F)c1Cl` (stereo not drawn) [II-189, 4-Methyl-piperazine-1-carboxylic acid (4-{5-amino-6-[1-(2,6-dichloro-3-fluoro-phenyl)-ethoxy]-pyrazin-2-yl}-phenyl)-amide] and `CC(Oc1nc(-c2ccnc(C(=O)N3CCN(C)CC3)c2)cnc1N)c1c(Cl)ccc(F)c1Cl` (stereo not drawn) [II-206, (4-{5-Amino-6-[1-(2,6-dichloro-3-fluoro-phenyl)-ethoxy]-pyrazin-2-yl}-pyridin-2-yl)-(4-methyl-piperazin-1-yl)-methanone] are within 1.5-fold of each other in IC50: 0.074 µM for the first, 0.1 µM for the second.

`CN1CCN(C(=O)c2ccc(-c3cnc(N)c(OCc4c(F)ccc(F)c4Cl)n3)s2)CC1` [II-194, {5-[5-Amino-6-(2-chloro-3,6-difluoro-benzyloxy)-pyrazin-2-yl]-thiophen-2-yl)(4-methyl-piperazin-1-yl)-methanone] and `Nc1ncc(-c2ccc(C(=O)N3CCC(N4CCCC4)CC3)s2)nc1OCc1c(F)ccc(F)c1Cl` [II-195, {5-[5-Amino-6-(2-chloro-3,6-difluoro-benzyloxy)-pyrazin-2-yl]-thiophen-2-yl}-(4-pyrrolidin-1-yl-piperidin-1-yl)-methanone] are within 1.5-fold of each other in IC50: 0.62 µM for the first, 0.51 µM for the second.

`C[C@@H]1CN(C(=O)c2ccc(-c3cnc(N)c(OCc4c(F)ccc(F)c4Cl)n3)s2)C[C@H](C)N1` [II-196, {5-[5-Amino-6-(2-chloro-3,6-difluoro-benzyloxy)-pyrazin-2-yl]-thiophen-2-yl}-((3R,5S)-3,5-dimethyl-piperazin-1-yl)-methanone] and `Nc1ncc(-c2ccc(C(=O)N3CCC[C@@H]3CN3CCCC3)s2)nc1OCc1c(F)ccc(F)c1Cl` [II-197, {5-[5-Amino-6-(2-chloro-3,6-difluoro-benzyloxy)-pyrazin-2-yl]-thiophen-2-yl}-((R)-2-pyrrolidin-1-ylmethyl-pyrrolidin-1-yl)-methanone] are within 1.5-fold of each other in IC50: 0.55 µM for the first, 0.8 µM for the second.

Going from `Nc1ncc(-c2ccc(C(=O)NCCN3CCOCC3)s2)nc1OCc1c(F)ccc(F)c1Cl` [II-198, 5-[5-Amino-6-(2-chloro-3,6-difluoro-benzyloxy)-pyrazin-2-yl]-thiophene-2-carboxylic acid (2-morpholin-4-yl-ethyl)-amide] to `CC(Oc1nc(-c2cncc(C(=O)NCCN3CCOCC3)c2)cnc1N)c1c(Cl)ccc(F)c1Cl` (stereo not drawn) [II-208, 5-{5-Amino-6-[1-(2,6-dichloro-3-fluoro-phenyl)-ethoxy]-pyrazin-2-yl}-N-(2-morpholin-4-yl-ethyl)-nicotinamide], the IC50 falls from 0.7 µM to 0.038 µM (18-fold).

`CC(Oc1nc(-c2ccc(C(=O)N3CCN(C)CC3)cn2)cnc1N)c1c(Cl)ccc(F)c1Cl` (stereo not drawn) [II-199, 3-[1-(2,6-dichloro-3-fluoro-phenyl)ethoxy]-5-{5-[(4-methylpiperazin-1-yl)carbonyl]-pyridin-2-yl}pyrazin-2-amine trifluoroacetate] and `CC(Oc1nc(-c2cccc(C(=O)N3CCN(C)CC3)n2)cnc1N)c1c(Cl)ccc(F)c1Cl` (stereo not drawn) [II-204, (6-{5-Amino-6-[1-(2,6-dichloro-3-fluoro-phenyl)-ethoxy]-pyrazin-2-yl}-pyridin-2-yl)-(4-methyl-piperazin-1-yl)-methanone] are within 1.5-fold of each other in IC50: 0.15 µM for the first, 0.22 µM for the second.

Compared with `CC(Oc1nc(-c2ccncc2)cnc1N)c1c(Cl)ccc(F)c1Cl` (stereo not drawn) [II-200, 3-[1-(2,6-Dichloro-3-fluoro-phenyl)-ethoxy]-5-pyridin-4-yl-pyrazin-2-ylamine], `CC(Oc1nc(-c2ccc[nH]2)cnc1N)c1c(Cl)ccc(F)c1Cl` (stereo not drawn) [II-201, 3-[1-(2,6-Dichloro-3-fluoro-phenyl)-ethoxy]-5-(1H-pyrrol-2-yl)-pyrazin-2-ylamine] is 4.9-fold higher in IC50: 0.045 µM for the first, 0.22 µM for the second. The first is the more potent here.

`CC(Oc1nc(-c2ccc(C(=O)N3CCN(C)CC3)cn2)cnc1N)c1c(Cl)ccc(F)c1Cl` (stereo not drawn) [II-202, (6-{5-Amino-6-[1-(2,6-dichloro-3-fluoro-phenyl)-ethoxy]-pyrazin-2-yl}-pyridin-3-yl)-(4-methyl-piperazin-1-yl)-methanone] and `CC(Oc1nc(-c2cncc(C(=O)N3CCN(C)CC3)c2)cnc1N)c1c(Cl)ccc(F)c1Cl` (stereo not drawn) [II-205, (5-{5-Amino-6-[1-(2,6-dichloro-3-fluoro-phenyl)-ethoxy]-pyrazin-2-yl}-pyridin-3-yl)-(4-methyl-piperazin-1-yl)-methanone] are within 1.5-fold of each other in IC50: 0.15 µM for the first, 0.1 µM for the second.

Work on `CC(Oc1nc(-c2cncc(C(=O)NCCCN3CCOCC3)c2)cnc1N)c1c(Cl)ccc(F)c1Cl` (stereo not drawn) [II-210, 5-{5-Amino-6-[1-(2,6-dichloro-3-fluoro-phenyl)-ethoxy]-pyrazin-2-yl}-N-(3-morpholin-4-yl-propyl)-nicotinamide] yielded an IC50 of 0.022 µM.
